Experimental findings from patent publication US4906666A, “Hydroxamic acids and pharmaceutical compositions containing them, and anti-allergic use thereof” (Boehringer Mannheim GmbH, priority 1986, dated 1990) are described below.

The test system of assay [1] is passively sensitized strip of pulmonary parenchyma (guinea pig). Kind of assay: Inhibition of the antigen-induced constriction on the passively sensitized strip of pulmonary parenchyma, Superfusion. It counts as cell-based. The conditions noted are these: Cavia porcellus, concentration 20 μM. From the text:
(§1) The inhibiting action of the compounds according to the invention was expressed as a percentage reduction of the constriction amplitude of the "specimens with the test substance" in proportion to the "untreated control constrictions."

The test system is the same in assay [2]. Put plainly: Inhibition of antigen-caused constriction of passively sensitized guinea pig pulmonary parenchyma strips in vitro (Organ Bath). The note with it: concentration 5 μg/ml, 20 min preincubation at 37° C., ovalbumin constriction; for inhibition at 5 µg/mL: Cavia porcellus, read-out: Inhibition (%) of the antigen-induced constriction, Organ Bath. It is filed as cell-based, Pirbright-White guinea pigs.
Excerpt: Activity of the inventive compounds was shown by the following testing in vitro. […] For this study of the inventive compounds, a measurement was made of the inhibition of the antigen-caused constriction of passively sensitized strips of guinea pig lung parenchyma, as described herewith:
Pirbright-White guinea pigs were stunned by a blow to the neck and bled. The lungs were flushed largely free of blood in situ with Krebs' buffer, pH 7.4.
Then the lung was removed, cut into strips (approx. 20×4×4 mm) and the strips were passively sensitized for one hour at room temperature with a 1:50 dilution of a homologous anti-ovalbumin antiserum and then washed once with Krebs' buffer.
The antiserum had previously been produced as described by Davies et al, (Quantitative studies on anaphylaxis in guinea pigs passively sensitized with homologous antibody. Inter. Arch. Allergy 41, 648-654 (1971)) in guinea pigs of the same strain by the repeated injection of ovalbumin (2×crystallized) with the addition of complete Freund's adjuvant.
Until it was used, the antiserum was stored undiluted at -18° C.
Then the lung strips were suspended singly in 10-milliliter water baths with a bias weight of 1.2 g on an isometric measuring receptable.
Then the baths were filled with Krebs' buffer and continually gassed at 37°° C. with O2 (95%) and CO2 (5%).
The constrictions of the lung strips were recorded through an amplifier on a plotter.
After a 30-minute habituating phase, histamine control spasms were produced in order to establish the reactivity of the lung specimens, washed, then the test substance was preincubated for 20 minutes at 37° C., and then the ovalbumin constriction was produced.
as §1

As to `CCCc1c(OCCCSCC(=O)N(C)O)ccc(C(C)=O)c1O` [Example 1, N-Hydroxy-N-methyl-S-[3-(4-acetyl-3-hydroxy-2-propylphenoxy)-propyl]-thioacetamide], the inhibition (commonly the relative decrease from the control value, in per cent) at 20 µM in assay [1] is 39%.

With `CCCCCc1cccc(OCCCSCCC(=O)N(C)O)c1` [Example 2b, N--hydroxy-N--methyl-S--[3-(3-pentylphenoxy)-propyl]-3-thiopropionic acid amide], the inhibition at 20 µM in assay [1] turned out to be 58%.

Regarding `CCCc1c(OCCCCSCCC(=O)N(C)O)ccc(C(C)=O)c1O` [Example 2c, N--hydroxy-N--methyl-S--[4-(4-acetyl-3-hydroxy-2-propyl-phenoxy)-butyl]-3-thio-propionic acid amide], the inhibition at 20 µM in assay [1] amounted to 72%.

As to `CCCc1c(OCCCCSCC(=O)N(C)O)ccc(C(C)=O)c1O` [Example 2f, N--hydroxy-N--methyl-S--[4-(4-acetyl-3-hydroxy-2-propyl-phenoxy)-butyl]-thioacetamide], in assay [1], the inhibition at 20 µM was determined as 48%.

Take `CCCc1c(OCC#CCSCCC(=O)N(C)O)ccc(C(C)=O)c1O` [Example 2g, N--hydroxy-N--methyl-S--[4-(acetyl-3-hydroxy-2-propyl-phenoxy)-but-2-ynyl]-3-thiopropionic acid amide]: the “Inhibition (%) of the antigen-induced constriction, Organ Bath” value in assay [2] was determined as 67%.

On to `CCCc1c(OCCCSCCC(=O)N(C)O)ccc(C(C)=O)c1O` [Example 2i, N--hydroxy-N--methyl-S--[3-(4-acetyl-3-hydroxy-2-propyl-phenoxy)-propyl]-3-thio-propionic acid amide], for which the inhibition at 20 µM in assay [1] is 63%. Also, in assay [2], the inhibition at 5 µg/mL turned out to be 36%.

Take `CCCCCC(O)c1cccc(OCCCSCCCC(=O)N(C)O)c1` (stereo not shown) [Example 2l, N--hydroxy-N--methyl-S--[3-(3-{1-hydroxyhexyl}-phenoxy)-propyl]-4-thiobutyric acid amide]: the inhibition at 20 µM in assay [1] was found to be 44%.

For `CCCCCC(O)c1cccc(OCC(O)CSCCCC(=O)N(C)O)c1` (stereo not shown) [Example 2m, N--hydroxy-N--methyl-S--[3-(3-{1-hydroxyhexyl}-phenoxy)-2-hydroxypropyl]-4-thiobutyric acid amide], in assay [1], the inhibition at 20 µM was found to be 29%.

Turning to `CCCCCC(O)c1cccc(OCCCCSCCC(=O)N(C)O)c1` (stereo not shown) [Example 2n, N--hydroxy-N--methyl-S--[4-(3-{1-hydroxyhexyl}-phenoxy)-butyl]-3-thiopropronic acid amide], the inhibition at 20 µM in assay [1] is 33%.

On to `CCCCCC(O)c1cccc(OCC=CCSCCC(=O)N(C)O)c1` (stereo not shown) [Example 2o, N--hydroxy-N--methyl-S--[4-(3-{1-hydroxyhexyl}-phenoxy)-but-2-enyl]-3-thiopropionic acid amide], for which the inhibition at 20 µM in assay [1] was 42%.

As to `CCCc1c(OCCCSCCC(=O)ONC2CCCCC2)ccc(C(C)=O)c1O` [Example 2t, O--[S--(3-{4-acetyl-3-hydroxy-2-propylphenoxy}-propyl)-3-thiopropionyl]-cyclohexyl-hydroxylamine], in assay [1], the inhibition at 20 µM is 15%.

For `CCCCCC(O)c1cccc(OCCCSCCCC(=O)Nc2nn[nH]n2)c1` (stereo not shown) [Example 4c, N--[(1H)-tetrazol-5-yl]-S--[3-(3-{1-hydroxyhexyl}-phenoxy)-propyl]-4-thiobutyric acid amide], in assay [1], the inhibition at 20 µM amounted to 29%.

Consider `CCCCCC(O)c1cccc(OCC(O)CSCCCC(=O)Nc2nn[nH]n2)c1` (stereo not shown) [Example 4d], for which, in assay [1], the inhibition at 20 µM came to 83%.

Regarding `CCCCCC(O)c1cccc(OCCCCSCCC(=O)Nc2nn[nH]n2)c1` (stereo not shown) [Example 4e, N--[(1H)-tetrazol-5-yl]-S--[4-(3-{1-hydroxyhexyl}-phenoxy)-butyl]-3-thiopropionic acid amide], the inhibition at 20 µM in assay [1] is 73%.

With `CCCCCC(O)c1cccc(OCC=CCSCCC(=O)Nc2nn[nH]n2)c1` (stereo not shown) [Example 4f, N--[(1H)-tetrazol-5-yl]-S--[4-(3-{1-hydroxyhexyl}-phenoxy)-but-2-enyl]-3-thiopropionic acid amide], the inhibition at 20 µM in assay [1] was 26%.

`O=C(CCSCCCOc1ccc(Cl)c(Cl)c1)Nc1nn[nH]n1` [Example 4g, N--[(1H)-tetrazol-5-yl]-S--[3-(3,4-dichlorophenoxy)-propyl]-3-thiopropionic acid amide]: the inhibition at 20 µM in assay [1] was found to be 75%.

With `CCCc1c(OCCCSCCCCCc2nn[nH]n2)ccc(C(C)=O)c1O` [Example 6a, 5-{S--[3-(4-acetyl-3-hydroxy-2-propylphenoxy)-propyl]-5-thiopentyl}-(1H)-tetrazole], in assay [1], the inhibition at 20 µM was found to be 70%.

Regarding `CCCc1c(OCCCSCCc2nn[nH]n2)ccc(C(C)=O)c1O` [Example 6b, 5-{S--[3-(4-acetyl-3-hydroxy-2-propylphenoxy)-propyl]-2-thioethyl}-(1H)-tetrazole], the inhibition at 20 µM in assay [1] amounted to 55%.

Regarding `CCCCCc1ccccc1OCCCSCCc1nn[nH]n1` [Example 6c, 5-{S--[3-(2-pentylphenoxy)-propyl]-2-thioethyl}-(1H)-tetrazole], the inhibition at 20 µM in assay [1] worked out at 13%.

Turning to `C=CCc1c(OCCCSCCc2nn[nH]n2)ccc(C(C)=O)c1O` [Example 6d, 5-{S--[3-(4-acetyl-3-hydroxy-2-allylphenoxy)-propyl]-2-thioethyl}-(1H)-tetrazole], the inhibition at 5 µg/mL in assay [2] came to 24%.

For `CCCc1c(OCCCSCCSc2nn[nH]n2)ccc(C(C)=O)c1O` [Example 7, {S-[3-(4-Acetyl-3-hydroxy-2-propylphenoxy)-propyl]-2-thioethyl}-5-mercapto-(1H)-tetrazole], the inhibition at 20 µM in assay [1] is 29%.

For `CCCCCC(O)c1cccc(OCCCSCCCC(=O)NO)c1` (stereo not shown) [Example 9a, N--hydroxy-S--[3-(3-{1-hydroxy-hexyl}-phenoxy)-propyl]-4-thiobutyric acid amide], the inhibition at 20 µM in assay [1] stood at 11%.

As for `CCCCCC(O)c1cccc(OCC(O)CSCCCC(=O)NO)c1` (stereo not shown) [Example 9b, N--hydroxy-S--[3-(3-{1-hydroxy-hexyl}-phenoxy)-2-hydroxy-propyl]-4-thiobutyric acid amide], in assay [1], the inhibition at 20 µM was found to be 21%.

Consider `CCCCCC(O)c1cccc(OCCCCSCCC(=O)NO)c1` (stereo not shown) [Example 9c, N--hydroxy-S--[4-(3-{1-hydroxy-hexyl}phenoxy)-butyl]-3-thiopropionic acid amide], for which the inhibition at 20 µM in assay [1] was determined as 27%.
